Here are results for 14 compounds from ChEMBL document CHEMBL1137683, “Synthesis and in vitro cysticidal activity of new benzimidazole derivatives” (Eur J Med Chem, 2009).

Series [1] deals with Taenia crassiceps. The series can be described thus: Antiparasitic activity against Taenia crassiceps cysts ORF strain assessed as cysts mortality at 0.28 uM after 11 days by Trypan blue exclusion test. It is filed as functional.
Series [2] relates to Taenia crassiceps. Description: Antiparasitic activity against Taenia crassiceps cysts ORF strain assessed as cysts mortality at 1.70 uM after 11 days by Trypan blue exclusion test. It is filed as functional.
Series [3] concerns Taenia crassiceps. The series can be described thus: Antiparasitic activity against Taenia crassiceps cysts WFU strain assessed as cysts mortality at 0.28 uM after 11 days by Trypan blue exclusion test. It is filed as functional.
Series [4] relates to Taenia crassiceps. The series can be described thus: Antiparasitic activity against Taenia crassiceps cysts WFU strain assessed as cysts mortality at 1.70 uM after 11 days by Trypan blue exclusion test. It is filed as functional.
The nature of series [5]: Octanol-water partition coefficient, log P of the compound. It is filed as physicochemical.

The structures appear in SMILES notation.

For `CCCSc1ccc2nc(NC(=O)OC)n(C)c2c1`, the Activity in the series with Taenia crassiceps [1] and in the series with Taenia crassiceps [2] was 0% each time.
Consider `CCCSc1ccc2c(c1)nc(NC(=O)OC)n2C`, for which the Activity in the series with Taenia crassiceps [1] and with Taenia crassiceps [2] was 0% throughout.
Broadly, the logP is a log measure of how a compound divides between an organic and an aqueous phase. A high value points to higher lipophilicity. Consider `COC(=O)Nc1nc2cc(C(=O)N3CCCCC3)ccc2[nH]1`, for which the Activity with Taenia crassiceps [1] amounted to 37%; in the series with Taenia crassiceps [2], 62%; in the series with Taenia crassiceps [3], 9.3%; in the series on Taenia crassiceps [4], 16.7%. Moreover, in series [5], the lipophilicity (logP) is 1.65.
Take `CNC(=O)c1ccc2[nH]c(NC(=O)OC)nc2c1`: the Activity in the series on Taenia crassiceps [1] and in the series with Taenia crassiceps [2] was 0% in each case. This compound also registered a log partition coefficient (logP) in series [5] of 0.68.
For `CSc1nc2cc(C(=O)N3CCC(C)CC3)ccc2[nH]1`, the Activity in the series on Taenia crassiceps [1] and with Taenia crassiceps [2] was 0% each time.
Turning to `COC(=O)Nc1nc2cc(Cl)ccc2[nH]1`, the Activity was 15% in the series on Taenia crassiceps [1], 23% in the series on Taenia crassiceps [2], 5% with Taenia crassiceps [3] and 8% in the series with Taenia crassiceps [4]. Also, the lipophilicity (logP) in series [5] is 2.09.
On to `CCCSc1ccc2[nH]c(N(C)C(=O)OC)nc2c1`, for which the Activity in the series on Taenia crassiceps [1] and in the series on Taenia crassiceps [2] was 0% in each case.
As for `CSc1nc2cc(C(=O)N3CCCCC3)c(Cl)cc2[nH]1`, the Activity in the series with Taenia crassiceps [1] and with Taenia crassiceps [2] was 0% in each case.
Take `COC(=O)Nc1nc2cc(C(=O)OCc3ccc([N+](=O)[O-])cc3)ccc2[nH]1`: the Activity with Taenia crassiceps [1] was determined as 41%; in the series with Taenia crassiceps [2] it was 68%; in the series with Taenia crassiceps [3], 22.6%; in the series with Taenia crassiceps [4], 26%. Further, the log partition coefficient (logP) in series [5] turned out to be 3.12.
As for `CSc1nc2cc(C(=O)N3CCC(C)CC3)c(Cl)cc2[nH]1`, the Activity in the series with Taenia crassiceps [1] and in the series on Taenia crassiceps [2] was 0% in each case.
In turn, `COC(=O)Nc1nc2cc(Oc3cccc4ccccc34)c(Cl)cc2[nH]1` displayed a lipophilicity (logP) in series [5] of 3.56.
Consider `CCC[S+]([O-])c1ccc2[nH]c(NC(=O)OC)nc2c1` (stereo not given) [ALBENDAZOLE OXIDE], for which the Activity is 46% in the series on Taenia crassiceps [1], 88% with Taenia crassiceps [2], 25% with Taenia crassiceps [3] and 35% with Taenia crassiceps [4]. The compound further came in with a logP in series [5] of 1.54.
On to `CSc1nc2cc(C(=O)N3CCCCC3)ccc2[nH]1`, for which the Activity with Taenia crassiceps [1] and in the series on Taenia crassiceps [2] was 0% in each case.
For the compound `CSc1nc2cc(C(=O)N3CCN(C)CC3)ccc2[nH]1`, the Activity in the series with Taenia crassiceps [1] and in the series with Taenia crassiceps [2] was 0% in each case.
